In patent US12077503B2, “Substituted cyclic amides and their use as herbicides” (FMC CORPORATION, priority 2015, dated 2024):

Key:
Type in all cases: in vivo
[1] = tested on: Kochia (Kochia scoparia); experiment: Test A postemergence; details: Bassia scoparia, post-emergence, 240 h; for pest or weed control at 31 g/ha: Postemergence, 31 g ai/ha, visual injury after approx. 10 d, 0 to 100 scale, 0 no effect, 100 complete control, read-out: Plant response rating, Kochia
Method in brief: (§1)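 Seeded soil received test chemicals as a preemergence directed spray, and seedlings at one to two leaves, 2–10 cm tall, received them postemergence, in a non-phytotoxic, surfactant-containing solvent mixture. Pots were held in a greenhouse for approximately 10 d, then rated for injury from 0, no effect, to 100, complete control.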

[2] = tested on: pigweed (Amaranthus retroflexus); experiment: Test A postemergence; details: Amaranthus retroflexus, post-emergence, 240 h; for pest or weed control at 125 g/ha: 125 g ai/ha, postemergence, visual injury on 0 to 100 scale (0 no effect, 100 complete control), approx. 10 d, read-out: Pigweed plant response rating; for pest or weed control at 31 g/ha: Postemergence, 31 g ai/ha, visual injury after approx. 10 d, 0 to 100 scale, 0 no effect, 100 complete control, read-out: Plant response rating, Pigweed
Method in brief: as §1

[3] = tested on: ryegrass, Italian (Italian ryegrass, Lolium multiflorum); experiment: Test A postemergence; details: Lolium multiflorum, post-emergence, 240 h; for pest or weed control at 125 g/ha: 125 g ai/ha, postemergence, visual injury on 0 to 100 scale (0 no effect, 100 complete control), approx. 10 d, read-out: Ryegrass, Italian plant response rating; for pest or weed control at 31 g/ha: Postemergence, 31 g ai/ha, visual injury after approx. 10 d, 0 to 100 scale, 0 no effect, 100 complete control, read-out: Plant response rating, Ryegrass, Italian
Method in brief: as §1

[4] = tested on: ragweed (common ragweed, Ambrosia elatior); experiment: Test A postemergence; details: Ambrosia artemisiifolia, post-emergence, 240 h; for pest or weed control at 125 g/ha: 125 g ai/ha, postemergence, visual injury on 0 to 100 scale (0 no effect, 100 complete control), approx. 10 d, read-out: Ragweed plant response rating; for pest or weed control at 31 g/ha: Postemergence, 31 g ai/ha, visual injury after approx. 10 d, 0 to 100 scale, 0 no effect, 100 complete control, read-out: Plant response rating, Ragweed
Method in brief: as §1

[5] = tested on: giant foxtail (Setaria faberii); experiment: Test A postemergence; details: Setaria faberi, post-emergence, 240 h; for pest or weed control at 125 g/ha: 125 g ai/ha, postemergence, visual injury on 0 to 100 scale (0 no effect, 100 complete control), approx. 10 d, read-out: Foxtail, Giant plant response rating; for pest or weed control at 31 g/ha: Postemergence, 31 g ai/ha, visual injury after approx. 10 d, 0 to 100 scale, 0 no effect, 100 complete control, read-out: Plant response rating, Foxtail, Giant
Method in brief: as §1

[6] = tested on: wheat (Triticum aestivum); experiment: Test A postemergence; details: Triticum aestivum, post-emergence, 240 h; for plant injury at 125 g/ha: 125 g ai/ha, postemergence, visual injury on 0 to 100 scale (0 no effect, 100 complete control), approx. 10 d, read-out: Wheat plant response rating; for plant injury at 31 g/ha: Postemergence, 31 g ai/ha, visual injury after approx. 10 d, 0 to 100 scale, 0 no effect, 100 complete control, read-out: Plant response rating, Wheat
Method in brief: as §1

[7] = tested on: corn (Zea mays); experiment: Test A postemergence; details: Zea mays, post-emergence, 240 h; for plant injury at 125 g/ha: 125 g ai/ha, postemergence, visual injury on 0 to 100 scale (0 no effect, 100 complete control), approx. 10 d, read-out: Corn plant response rating; for Corn plant response rating (crop injury, 0 = no effect, 100 = complete kill) at 31 g/ha: Postemergence, 31 g ai/ha, visual injury after approx. 10 d, 0 to 100 scale, 100 complete control
Method in brief: as §1

[8] = tested on: barnyardgrass (Echinochloa crus-galli); experiment: Test A postemergence; details: Echinochloa crus-galli, post-emergence, 240 h; for pest or weed control at 125 g/ha: 125 g ai/ha, postemergence, visual injury on 0 to 100 scale (0 no effect, 100 complete control), approx. 10 d, read-out: Barnyardgrass plant response rating; for pest or weed control at 31 g/ha: Postemergence, 31 g ai/ha, visual injury after approx. 10 d, 0 to 100 scale, 0 no effect, 100 complete control, read-out: Plant response rating, Barnyardgrass
Method in brief: as §1

[9] = tested on: Galium (catchweed bedstraw, Galium aparine); experiment: Test A postemergence; details: Galium, post-emergence, 240 h; for pest or weed control at 125 g/ha: 125 g ai/ha, postemergence, visual injury on 0 to 100 scale (0 no effect, 100 complete control), approx. 10 d, read-out: Galium plant response rating; for pest or weed control at 31 g/ha: Postemergence, 31 g ai/ha, visual injury after approx. 10 d, 0 to 100 scale, 0 no effect, 100 complete control, read-out: Plant response rating, Galium
Method in brief: as §1

[10] = tested on: blackgrass (Alopecurus myosuroides); experiment: Test A postemergence; details: Alopecurus myosuroides, post-emergence, 240 h; for pest or weed control at 125 g/ha: 125 g ai/ha, postemergence, visual injury on 0 to 100 scale (0 no effect, 100 complete control), approx. 10 d, read-out: Blackgrass plant response rating; for pest or weed control at 31 g/ha: Postemergence, 31 g ai/ha, visual injury after approx. 10 d, 0 to 100 scale, 0 no effect, 100 complete control, read-out: Plant response rating, Blackgrass
Method in brief: as §1

[11] = tested on: sedge, umbrella (small-flower umbrella sedge, Cyperus difformis); experiment: Test B flooded paddy test; details: Cyperus difformis, 250 g ai/ha, Flood; 0 to 100 scale where 0 is no effect and 100 is complete control; read-out: Sedge, Umbrella plant response rating
Method in brief: (§2)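 Greenhouse paddy pots with 2-leaf stage plants received compound by direct addition to floodwater 3 cm deep, kept at that level. Scored visually at 13–15 d versus controls (0 no effect; 100 complete control).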

[12] = tested on: ducksalad (Heteranthera limosa); experiment: Test B flooded paddy test; details: Heteranthera limosa, 250 g ai/ha, Flood; 0 to 100 scale where 0 is no effect and 100 is complete control; read-out: Ducksalad plant response rating
Method in brief: as §2

[13] = tested on: barnyardgrass (Echinochloa crus-galli); experiment: Test B flooded paddy test; details: Echinochloa crus-galli, 250 g ai/ha, Flood; 0 to 100 scale where 0 is no effect and 100 is complete control; read-out: Barnyardgrass plant response rating
Method in brief: as §2

[14] = tested on: rice (Oryra sativa); experiment: Test B flooded paddy test; details: Oryza sativa, 250 g ai/ha, Flood; 0 to 100 scale where 0 is no effect and 100 is complete control; read-out: Rice plant response rating
Method in brief: as §2

[15] = tested on: Kochia (Kochia scoparia); experiment: Test A preemergence; details: Bassia scoparia, pre-emergence, 240 h, 0 to 100 scale where 0 is no effect and 100 is complete control, read-out: Kochia plant response rating; for pest or weed control at 31 g/ha: 31 g ai/ha, Preemergence
Method in brief: as §1

[16] = tested on: pigweed (Amaranthus retroflexus); experiment: Test A preemergence; details: Amaranthus retroflexus, pre-emergence, 240 h, 0 to 100 scale where 0 is no effect and 100 is complete control, read-out: Pigweed plant response rating; for pest or weed control at 31 g/ha: 31 g ai/ha, Preemergence; for pest or weed control at 125 g/ha: 125 g ai/ha, preemergence, approx. 10 d
[17] = tested on: ryegrass, Italian (Italian ryegrass, Lolium multiflorum); experiment: Test A preemergence; details: Lolium multiflorum, pre-emergence, 240 h, 0 to 100 scale where 0 is no effect and 100 is complete control, read-out: Ryegrass, Italian plant response rating; for pest or weed control at 31 g/ha: 31 g ai/ha, Preemergence; for pest or weed control at 125 g/ha: 125 g ai/ha, preemergence, approx. 10 d
Method in brief: as §1

[18] = tested on: ragweed (common ragweed, Ambrosia elatior); experiment: Test A preemergence; details: Ambrosia artemisiifolia, pre-emergence, 240 h, 0 to 100 scale where 0 is no effect and 100 is complete control, read-out: Ragweed plant response rating; for pest or weed control at 31 g/ha: 31 g ai/ha, Preemergence; for pest or weed control at 125 g/ha: 125 g ai/ha, preemergence, approx. 10 d
Method in brief: as §1

[19] = tested on: giant foxtail (Setaria faberii); experiment: Test A preemergence; details: Setaria faberi, pre-emergence, 240 h, 0 to 100 scale where 0 is no effect and 100 is complete control, read-out: Foxtail, Giant plant response rating; for pest or weed control at 31 g/ha: 31 g ai/ha, Preemergence; for pest or weed control at 125 g/ha: 125 g ai/ha, preemergence, approx. 10 d
Method in brief: as §1

[20] = tested on: barnyardgrass (Echinochloa crus-galli); experiment: Test A preemergence; details: Echinochloa crus-galli, pre-emergence, 240 h, 0 to 100 scale where 0 is no effect and 100 is complete control, read-out: Barnyardgrass plant response rating; for pest or weed control at 31 g/ha: 31 g ai/ha, Preemergence; for pest or weed control at 125 g/ha: 125 g ai/ha, preemergence, approx. 10 d
Method in brief: as §1

In the case of `Cc1cc([C@H]2CN(C)C(=O)[C@@H]2C(=O)Nc2ccccc2C(F)(F)F)ccc1Br` [Compound 1103], the pest or weed control at 31 g/ha [1] is reported as 0%, the pest or weed control at 125 g/ha [2] is reported as 0% and the pest or weed control at 31 g/ha [2] is reported as 0%. The pest or weed control at 125 g/ha [3] was 20%, the pest or weed control at 31 g/ha [3] was 0% and the pest or weed control at 125 g/ha [4] was 30%. The pest or weed control at 31 g/ha [4] was 0%, the pest or weed control at 125 g/ha [5] was 80% and the pest or weed control at 31 g/ha [5] was 50%. The plant injury at 125 g/ha [6] was 20%, the plant injury at 31 g/ha [6] was 0% and the plant injury at 125 g/ha [7] was 0%. It also gave a Corn plant response rating (crop injury, 0 = no effect, 100 = complete kill) at 31 g/ha [7] of 0%, a pest or weed control at 125 g/ha [8] of 70% and a pest or weed control at 31 g/ha [8] of 40%. For the same compound, the pest or weed control at 125 g/ha [9] was 50%, the pest or weed control at 31 g/ha [9] was 30% and the pest or weed control at 125 g/ha [10] was 30%. It also gave a pest or weed control at 31 g/ha [10] of 20%, a pest or weed control at 250 g/ha [11] of 0% and a pest or weed control at 250 g/ha [12] of 90%. The pest or weed control at 250 g/ha [13] was 75%, the pest or weed control at 250 g/ha [14] was 25% and the pest or weed control at 31 g/ha [15] was 0%. The pest or weed control at 31 g/ha [16] was 0%, the pest or weed control at 125 g/ha [16] was 0% and the pest or weed control at 31 g/ha [17] was 0%. The pest or weed control at 125 g/ha [17] was 0%, the pest or weed control at 31 g/ha [18] was 0% and the pest or weed control at 125 g/ha [18] was 20%. The pest or weed control at 31 g/ha [19] was 70%, the pest or weed control at 125 g/ha [19] was 90% and the pest or weed control at 31 g/ha [20] was 20%. For the same compound, the pest or weed control at 125 g/ha [20] was 70%.

Work on `O=C1NC[C@H](c2ccc(C(F)(F)F)cn2)[C@H]1C(=O)Nc1cccc(F)c1F` [Compound 1104] yielded a pest or weed control at 125 g/ha ([1]; 125 g ai/ha, postemergence, visual injury on 0 to 100 scale (0 no effect, 100 complete control), approx. 10 d, read-out: Kochia plant response rating) of 0%, a pest or weed control at 31 g/ha [1] of 0% and a pest or weed control at 125 g/ha [2] of 0%. It also gave a pest or weed control at 31 g/ha [2] of 0%, a pest or weed control at 125 g/ha [3] of 0% and a pest or weed control at 31 g/ha [3] of 0%. It also gave a pest or weed control at 125 g/ha [4] of 0%, a pest or weed control at 31 g/ha [4] of 0% and a pest or weed control at 125 g/ha [5] of 0%. For the same compound, the pest or weed control at 31 g/ha [5] was 0%, the plant injury at 125 g/ha [6] was 0% and the plant injury at 31 g/ha [6] was 0%. For the same compound, the plant injury at 125 g/ha [7] was 0%, the Corn plant response rating (crop injury, 0 = no effect, 100 = complete kill) at 31 g/ha [7] was 0% and the pest or weed control at 125 g/ha [8] was 30%. For the same compound, the pest or weed control at 31 g/ha [8] was 0%, the pest or weed control at 125 g/ha [9] was 0% and the pest or weed control at 31 g/ha [9] was 0%. The pest or weed control at 125 g/ha [10] was 0%, the pest or weed control at 31 g/ha [10] was 0% and the pest or weed control at 250 g/ha [11] was 0%. The pest or weed control at 250 g/ha [12] was 100%, the pest or weed control at 250 g/ha [13] was 40% and the pest or weed control at 250 g/ha [14] was 20%. It also gave a pest or weed control at 31 g/ha [15] of 0%, a pest or weed control at 125 g/ha ([15]; 125 g ai/ha, preemergence, approx. 10 d) of 0% and a pest or weed control at 31 g/ha [16] of 0%. For the same compound, the pest or weed control at 125 g/ha [16] was 0%, the pest or weed control at 31 g/ha [17] was 0% and the pest or weed control at 125 g/ha [17] was 0%. It also gave a pest or weed control at 31 g/ha [18] of 0%, a pest or weed control at 125 g/ha [18] of 0% and a pest or weed control at 31 g/ha [19] of 0%. The pest or weed control at 125 g/ha [19] was 70%, the pest or weed control at 31 g/ha [20] was 0% and the pest or weed control at 125 g/ha [20] was 50%.
